Laboratory results reported in paper PMC3454369, “Functional Redundancy of Class I Phosphoinositide 3-Kinase (PI3K) Isoforms in Signaling Growth Factor-Mediated Human Neutrophil Survival” (PLoS ONE, 2012).
Read-outs that look alike come from different tables or passages of the source.

Tests used:
[1] = tested on: Human neutrophils; assay: Morphologic analysis of human neutrophil apoptosis (light microscopy of cytospins); assay type: cell-based; conditions: rhGM-CSF 10 ng/ml, 20 h; for Cytoplasmic vacuolation of human neutrophils: light microscopy, PI-103 at 1 µM or above, LY294002 10 µM
[2] = tested on: Human neutrophils; assay: rhGM-CSF-modulated human neutrophil apoptosis, annexin V/PI flow cytometry; assay type: cell-based; conditions: rhGM-CSF 10 ng/ml; for Effect on rhGM-CSF-mediated human neutrophil survival: 20 h
Description: To examine the effects of small molecule PI3K inhibitors on rhGM-CSF (10 ng/ml) -modulated apoptosis, neutrophils (5×10^6/ml) were re-suspended in Iscove’s modified Dulbecco medium (IMDM) supplemented with 10% autologous serum, 100 U/mL penicillin and 100 µg/mL streptomycin in non-tissue culture treated flat bottom Falcon Flexiwell plates in a humidified 5% CO2 atmosphere at 37°C.

[3] = Cell accessibility of the inhibitor (footnote of Table 3); parameters: key: *: Poor cell accessibility; conditions: footnote mark at the inhibitor's name
[4] = tested on: Human neutrophils; assay: rhGM-CSF-modulated human neutrophil apoptosis, annexin V/PI flow cytometry; assay type: cell-based; conditions: no GM-CSF; 20 h (also 6 h); LY294002 10 µM
[5] = tested on: Peripheral blood neutrophils from exacerbating COPD patients; assay: Ex vivo apoptosis of peripheral blood neutrophils from patients with exacerbation of COPD, annexin V/PI flow cytometry; assay type: cell-based, human; conditions: 20 hours culture; for Effect on reduced spontaneous apoptosis of neutrophils from exacerbating COPD patients: ex vivo, 20 min pre-incubation
[6] = tested on: PKB (Akt) phosphorylation; assay: Western blot for rhGM-CSF-induced PKB (Akt Ser473) phosphorylation in human neutrophils; assay type: cell-based; conditions: 20 min pre-incubation, rhGM-CSF 10 ng/ml 10 min
Description: Neutrophils were suspended at 5×10^6/ml and 0.5 ml aliquots were pre-incubated for 20 minutes with PI3K inhibitors at 37°C prior to treatment with GM-CSF 10 ng/ml for 10 min. The cells were washed with ice-cold phosphate-buffered saline and pelleted and resuspended in 50 µl of cold lysis buffer (20 mM Tris-HCl (pH 7.5), 150 mM NaCl, 1 mM EDTA, 1 mM EGTA, 1% Triton X-100, 2.5 mM sodium pyrophosphate, 1 mM β-glycerophosphate, 1 mM PMSF, 1 mM sodium fluoride, 2 mM sodium orthovanadate, 10 µg/ml leupeptin, 10 µg/ml aprotinin) and incubated on ice for 10 minutes. The Triton-insoluble fraction was pelleted by centrifugation at 10 000 g for 15 min at 4°C. The protein concentration of the supernatant was determined using a colorimetric assay (bicinchoninic acid; BCA, BIO Rad Laboratories). SDS sample buffer was added to each neutrophil lysate and heated to 99°C for 5 min. 30 µg of protein/well was loaded on to each 10% SDS-polyacrylamide gel and subjected to electrophoresis at 150 V and transferred to a PVDF Immobilon membrane using a semi-dry transfer system at 130 mA for 90 minutes. The membrane was blocked for 1 hour with 5% non-fat dry milk in Tris-HCl buffered saline containing 0.1% (w/v) Tween 20 then immunoblotted overnight at 4°C in TBS-Tween-20 with primary monoclonal antibody to total Akt rabbit mAb or Phospho-Akt (Ser^473) rabbit mAb (Cell Signaling Technology 40585 and 9272 respectively) at a dilution of 1∶1000 in TBS-Tween 20 with 5% Bovine Serum Albumin. The membrane was washed three times in TBS-Tween 20 and incubated with ECL HRP-conjugated donkey anti-rabbit IgG (Fab2 fragment; GE Healthcare) at a dilution of 1∶10 000 in TBS-Tween 20 for 1 hour at room temperature. Membranes were developed using ECL-Plus kit (GE Healthcare).
Figure 5 Combined inhibition of all Class IA PI3Ks abrogates rhGM-CSF mediated PKB phosphorylation. […] Western blots from the experiments describe in B. above were scanned and analyzed using the Aida Image Analyzer 3.27 software package. […]

[7] = tested on: Murine peripheral blood neutrophils; conditions: for Effect on constitutive murine neutrophil apoptosis: no rmGM-CSF, 8 h and 4 h
[8] = molecular target: p110β (Homo sapiens, UniProt P42338); assay: biochemical
p110β, sequence (P42338 whole entry, species assumed): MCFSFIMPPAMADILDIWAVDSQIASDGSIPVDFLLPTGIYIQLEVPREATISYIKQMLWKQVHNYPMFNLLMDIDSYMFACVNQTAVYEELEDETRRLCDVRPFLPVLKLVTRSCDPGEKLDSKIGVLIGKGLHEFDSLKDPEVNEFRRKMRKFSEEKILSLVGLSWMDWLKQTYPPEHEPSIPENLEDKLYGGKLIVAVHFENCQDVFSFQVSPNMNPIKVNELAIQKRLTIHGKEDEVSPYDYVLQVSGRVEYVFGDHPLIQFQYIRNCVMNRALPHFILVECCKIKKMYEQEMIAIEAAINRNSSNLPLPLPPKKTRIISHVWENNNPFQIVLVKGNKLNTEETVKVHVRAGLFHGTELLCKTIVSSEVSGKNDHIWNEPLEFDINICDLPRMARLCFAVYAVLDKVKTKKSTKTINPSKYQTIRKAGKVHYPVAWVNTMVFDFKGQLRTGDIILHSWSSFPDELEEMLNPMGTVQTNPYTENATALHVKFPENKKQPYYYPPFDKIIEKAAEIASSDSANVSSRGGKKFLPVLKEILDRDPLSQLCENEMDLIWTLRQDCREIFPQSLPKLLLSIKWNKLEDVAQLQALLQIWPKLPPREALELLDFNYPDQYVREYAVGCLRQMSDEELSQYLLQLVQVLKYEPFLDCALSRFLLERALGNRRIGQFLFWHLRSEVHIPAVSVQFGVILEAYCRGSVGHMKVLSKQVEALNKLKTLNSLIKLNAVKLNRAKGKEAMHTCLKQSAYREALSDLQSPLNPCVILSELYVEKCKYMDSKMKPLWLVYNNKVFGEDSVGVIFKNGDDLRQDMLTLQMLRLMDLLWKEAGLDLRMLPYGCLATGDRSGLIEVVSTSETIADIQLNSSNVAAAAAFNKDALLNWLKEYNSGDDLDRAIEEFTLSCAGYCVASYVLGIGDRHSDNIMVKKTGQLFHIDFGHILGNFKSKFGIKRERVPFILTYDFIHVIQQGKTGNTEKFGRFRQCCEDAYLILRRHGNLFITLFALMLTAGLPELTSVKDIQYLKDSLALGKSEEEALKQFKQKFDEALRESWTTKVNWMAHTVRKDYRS
p110β, sequence (P27986 whole entry partner, species assumed): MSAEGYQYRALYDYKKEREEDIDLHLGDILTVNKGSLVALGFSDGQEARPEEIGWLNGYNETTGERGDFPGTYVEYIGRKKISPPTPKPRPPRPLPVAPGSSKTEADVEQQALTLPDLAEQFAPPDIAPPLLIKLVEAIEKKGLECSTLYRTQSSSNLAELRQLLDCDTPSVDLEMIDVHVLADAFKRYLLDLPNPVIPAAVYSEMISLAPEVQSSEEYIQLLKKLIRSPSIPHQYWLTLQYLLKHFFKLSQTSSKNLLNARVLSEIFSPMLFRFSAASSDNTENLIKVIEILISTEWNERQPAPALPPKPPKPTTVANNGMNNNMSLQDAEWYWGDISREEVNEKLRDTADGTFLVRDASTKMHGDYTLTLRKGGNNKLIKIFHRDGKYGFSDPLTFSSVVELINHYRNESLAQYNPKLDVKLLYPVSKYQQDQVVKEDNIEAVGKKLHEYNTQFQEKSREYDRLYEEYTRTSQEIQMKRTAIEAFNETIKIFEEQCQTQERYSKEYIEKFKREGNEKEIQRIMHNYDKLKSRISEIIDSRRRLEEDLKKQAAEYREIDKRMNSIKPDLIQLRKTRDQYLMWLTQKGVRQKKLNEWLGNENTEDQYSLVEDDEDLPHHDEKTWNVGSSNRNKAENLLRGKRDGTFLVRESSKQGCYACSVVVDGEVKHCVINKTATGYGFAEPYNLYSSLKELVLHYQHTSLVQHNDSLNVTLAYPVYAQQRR

[9] = molecular target: T1, p110δ (Homo sapiens, UniProt O00329); assay: biochemical
T1 sequence (O00329 whole entry, species assumed): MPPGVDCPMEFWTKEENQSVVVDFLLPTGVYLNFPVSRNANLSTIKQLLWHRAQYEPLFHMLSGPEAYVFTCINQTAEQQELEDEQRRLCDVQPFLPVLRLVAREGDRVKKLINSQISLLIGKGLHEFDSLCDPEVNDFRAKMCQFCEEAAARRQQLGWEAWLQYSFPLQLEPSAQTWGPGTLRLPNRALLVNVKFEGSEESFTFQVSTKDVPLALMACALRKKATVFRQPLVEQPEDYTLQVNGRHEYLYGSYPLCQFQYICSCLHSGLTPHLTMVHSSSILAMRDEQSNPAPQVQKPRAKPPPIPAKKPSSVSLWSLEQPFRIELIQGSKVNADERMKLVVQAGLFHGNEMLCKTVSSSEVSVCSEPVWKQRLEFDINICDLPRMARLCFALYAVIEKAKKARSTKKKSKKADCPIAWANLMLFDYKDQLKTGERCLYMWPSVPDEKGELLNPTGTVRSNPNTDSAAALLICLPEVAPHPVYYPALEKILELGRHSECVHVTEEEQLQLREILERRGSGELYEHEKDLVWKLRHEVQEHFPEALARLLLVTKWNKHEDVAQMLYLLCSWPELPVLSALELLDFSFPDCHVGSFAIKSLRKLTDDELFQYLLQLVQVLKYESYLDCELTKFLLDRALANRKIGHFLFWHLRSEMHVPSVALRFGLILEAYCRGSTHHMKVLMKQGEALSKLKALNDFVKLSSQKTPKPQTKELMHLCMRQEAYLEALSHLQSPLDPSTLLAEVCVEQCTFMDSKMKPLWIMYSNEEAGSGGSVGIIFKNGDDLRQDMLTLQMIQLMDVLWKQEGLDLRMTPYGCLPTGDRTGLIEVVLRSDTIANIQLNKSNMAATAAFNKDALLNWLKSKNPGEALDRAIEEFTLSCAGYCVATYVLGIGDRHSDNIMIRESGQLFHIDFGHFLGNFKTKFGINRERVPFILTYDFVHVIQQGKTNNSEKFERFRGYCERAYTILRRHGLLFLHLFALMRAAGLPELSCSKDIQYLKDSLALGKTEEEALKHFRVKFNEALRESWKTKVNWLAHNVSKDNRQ
T1 sequence (P27986 whole entry partner, species assumed): as the sequence (P27986 whole entry partner, species assumed) above

[10] = tested on: Human neutrophils; assay: fMLP-stimulated neutrophil oxidative burst (luminol/HRP chemiluminescence); assay type: cell-based; conditions: fMLP 100 nM
Description: All PI3K inhibitors were dissolved in dimethyl sulfoxide (DMSO) and stored at −20°C. […] The concentration response curves for NVS-PI3-3 and NVS-PI3-4 on the neutrophil respiratory burst generated as described in [10] are shown in Figure 2.  Figure 2 Effect of NVS-PI3-4 and NVS-PI3-3 on Neutrophil Oxidative Burst. Human neutrophils were suspended at 4×10^6/ml in HBSS at 37°C and either primed with TNFα 10 ng/ml or treated with vehicle control, prior to the addition of NVS-PI3-4 (A) or NVS-PI3-3 (B) at the indicated concentrations. […] Triangular symbols represent TNFα-primed cells; unprimed cells depicted by squares.

[11] = molecular target: T2, p110α (Homo sapiens, UniProt P42336); assay: biochemical
T2 sequence (P42336 whole entry, species assumed): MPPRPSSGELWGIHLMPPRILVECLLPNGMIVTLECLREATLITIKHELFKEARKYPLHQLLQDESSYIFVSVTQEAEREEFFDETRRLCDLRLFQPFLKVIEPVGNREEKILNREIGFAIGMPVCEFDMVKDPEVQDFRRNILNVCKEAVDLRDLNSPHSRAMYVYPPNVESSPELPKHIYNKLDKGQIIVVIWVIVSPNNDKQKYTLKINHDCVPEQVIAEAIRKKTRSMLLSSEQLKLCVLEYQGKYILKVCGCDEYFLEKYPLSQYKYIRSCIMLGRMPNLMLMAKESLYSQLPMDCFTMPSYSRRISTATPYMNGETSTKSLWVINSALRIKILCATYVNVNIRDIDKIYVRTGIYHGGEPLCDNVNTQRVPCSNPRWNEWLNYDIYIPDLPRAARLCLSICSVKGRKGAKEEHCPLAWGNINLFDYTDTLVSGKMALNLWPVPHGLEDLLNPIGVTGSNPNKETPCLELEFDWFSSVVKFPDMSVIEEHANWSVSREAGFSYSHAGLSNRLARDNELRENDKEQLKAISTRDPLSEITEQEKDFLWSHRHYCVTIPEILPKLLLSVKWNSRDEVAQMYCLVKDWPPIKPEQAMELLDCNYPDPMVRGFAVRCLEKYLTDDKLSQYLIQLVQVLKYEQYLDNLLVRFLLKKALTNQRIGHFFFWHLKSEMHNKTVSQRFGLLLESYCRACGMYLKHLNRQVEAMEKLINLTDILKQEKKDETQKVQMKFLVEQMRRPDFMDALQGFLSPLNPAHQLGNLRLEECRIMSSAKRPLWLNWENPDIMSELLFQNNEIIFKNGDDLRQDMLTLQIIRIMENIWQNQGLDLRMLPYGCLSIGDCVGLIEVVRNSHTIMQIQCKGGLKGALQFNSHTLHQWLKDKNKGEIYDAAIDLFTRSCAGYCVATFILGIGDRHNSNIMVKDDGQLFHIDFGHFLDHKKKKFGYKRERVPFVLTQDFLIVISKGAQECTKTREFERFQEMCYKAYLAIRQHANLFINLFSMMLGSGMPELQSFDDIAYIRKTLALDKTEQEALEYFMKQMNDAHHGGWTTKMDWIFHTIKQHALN
T2 sequence (P27986 whole entry partner, species assumed): as the sequence (P27986 whole entry partner, species assumed) above

[12] = molecular target: T3, p110γ (Homo sapiens, UniProt P48736); assay: biochemical
T3 sequence (P48736 whole entry, species assumed, canonical isoform): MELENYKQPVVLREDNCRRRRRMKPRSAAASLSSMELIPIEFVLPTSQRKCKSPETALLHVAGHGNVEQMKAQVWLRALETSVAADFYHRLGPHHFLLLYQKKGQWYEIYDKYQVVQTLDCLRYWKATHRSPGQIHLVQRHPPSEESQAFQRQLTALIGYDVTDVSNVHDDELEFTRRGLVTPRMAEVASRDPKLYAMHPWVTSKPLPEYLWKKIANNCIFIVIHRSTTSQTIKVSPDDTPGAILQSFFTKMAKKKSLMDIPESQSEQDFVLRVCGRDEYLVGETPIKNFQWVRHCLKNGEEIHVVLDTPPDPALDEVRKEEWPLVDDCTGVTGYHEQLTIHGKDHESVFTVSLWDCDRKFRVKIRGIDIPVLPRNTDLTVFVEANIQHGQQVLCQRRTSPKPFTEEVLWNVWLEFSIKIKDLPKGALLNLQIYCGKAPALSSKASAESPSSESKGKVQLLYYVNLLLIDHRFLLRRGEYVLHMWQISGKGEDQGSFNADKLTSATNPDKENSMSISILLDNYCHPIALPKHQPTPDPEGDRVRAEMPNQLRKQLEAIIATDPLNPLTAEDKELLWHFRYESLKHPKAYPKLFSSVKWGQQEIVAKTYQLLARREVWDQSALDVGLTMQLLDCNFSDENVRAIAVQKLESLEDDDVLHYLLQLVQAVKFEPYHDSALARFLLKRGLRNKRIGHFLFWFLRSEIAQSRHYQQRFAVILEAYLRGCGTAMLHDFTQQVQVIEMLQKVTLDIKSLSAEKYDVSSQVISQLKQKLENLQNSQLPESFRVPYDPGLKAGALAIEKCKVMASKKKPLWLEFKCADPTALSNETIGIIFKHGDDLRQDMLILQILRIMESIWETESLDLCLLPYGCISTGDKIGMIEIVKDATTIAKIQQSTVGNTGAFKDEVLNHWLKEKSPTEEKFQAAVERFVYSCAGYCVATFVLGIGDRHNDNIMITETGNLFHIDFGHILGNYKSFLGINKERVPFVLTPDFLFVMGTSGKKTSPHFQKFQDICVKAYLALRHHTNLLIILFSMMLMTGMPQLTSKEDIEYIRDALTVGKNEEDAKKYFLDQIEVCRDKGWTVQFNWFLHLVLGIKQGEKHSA

[13] = tested on: PI3K Class I isoforms; parameters: method as in PMID 20179189; conditions: competitive inhibition; cited from earlier work
[14] = molecular target: T1, p110δ; conditions: in vitro kinase assay; data compiled from published work; cited from earlier work
[15] = molecular target: T2, p110α; conditions: in vitro kinase assay; data compiled from published work; cited from earlier work
[16] = molecular target: T3, p110γ; conditions: in vitro kinase assay; data compiled from published work; cited from earlier work
[17] = inhibitor 3 µM, used individually
[18] = inhibitor 1 µM, used individually
[19] = C57BL/6, rmGM-CSF 0.1 ng/ml, 8 hours
[20] = C57BL/6, rmGM-CSF 0.1 ng/ml, 8 hours, concentration-dependent
[21] = TNFα 10 ng/ml-primed human neutrophils, read-out: Primed IC50, neutrophil oxidative burst
[22] = unprimed human neutrophils, read-out: Unprimed IC50, neutrophil oxidative burst

## O=c1[nH]c2ccccc2n1C1CCN(Cc2ccc(-c3nc4cc5nc[nH]c5cc4nc3-c3ccccc3)cc2)CC1 [AKT-i1/2]
[1]; increasing concentrations, morphology
  Effect on GM-CSF-mediated neutrophil survival: suppresses GM-CSF-mediated neutrophil survival

## O=C1NC(=O)/C(=C\c2ccc3nccnc3c2)S1 [AS605240]
[2]; [17]
  Effect on rhGM-CSF-mediated human neutrophil survival: failed to abrogate GM-CSF mediated survival
[3]
  Cell accessibility: AS605240 (γ) ^*

## Cc1cc(C(C)Nc2ccccc2C(=O)O)c2nc(N3CCOCC3)cc(=O)n2c1 (stereo not drawn) [HBC-417]
[2]; [18]
  Effect on rhGM-CSF-mediated human neutrophil survival: failed to affect GM-CSF-mediated survival

## Cc1ccccc1-n1c(Cn2cnc3c(N)ncnc32)nc2cccc(C)c2c1=O [IC87114]
[2]; [17]
  Effect on rhGM-CSF-mediated human neutrophil survival: failed to abrogate GM-CSF mediated survival

## O=c1cc(N2CCOCC2)oc2c(-c3ccccc3)cccc12 [LY294002]
[2]; inhibitor 10 µM
  Effect on rhGM-CSF-mediated human neutrophil survival: prevented rhGM-CSF-mediated human neutrophil survival
[4]
  Effect on constitutive human neutrophil apoptosis: without affecting the extent of constitutive neutrophil apoptosis
[1]
  Cytoplasmic vacuolation of human neutrophils: not apparent
[5]
  Effect on reduced spontaneous apoptosis of neutrophils from exacerbating COPD patients: failed to restore the ability of exacerbating patient-derived neutrophils to undergo apoptosis in a timely fashion
[6]
  Effect on GM-CSF-induced PKB phosphorylation: abolished
[7]
  Vacuole formation or necrosis in murine neutrophils: nor did it induce vacuole formation or necrosis
  Effect on constitutive murine neutrophil apoptosis: had no effect on the rate of constitutive murine neutrophil apoptosis
[7]; [19]
  Concentration giving maximal effect on rmGM-CSF survival effect: 10 µM
[7]; [20]
  Effect on rmGM-CSF cytoprotective (survival) effect in murine neutrophils: abrogated the rmGM-CSF cytoprotective effect

## NC(=O)[C@@H]1CCCN1C(=O)Nc1nc2ccc(-c3cnc(N)c(C(F)(F)F)c3)cc2s1 [NVS-PI3-2]
[2]; [18]
  Effect on rhGM-CSF-mediated human neutrophil survival: failed to affect GM-CSF-mediated survival

## Cc1cc(NC(=O)CCNC(=O)Nc2nc(C)c(-c3ccc(-n4cccn4)cc3)s2)no1 [NVS-PI3-3]
[2]; [18]
  Effect on rhGM-CSF-mediated human neutrophil survival: failed to affect GM-CSF-mediated survival
[8]
  IC50: 600 nM
[9]
  IC50: 3 nM
[10]; [21]
  IC50: 525 nM
[10]; [22]
  IC50: 44 nM
[11]
  IC50: 180 nM
[12]
  IC50: 310 nM

## CC(=O)c1ccc(-c2sc(NC(=O)NCCC(=O)NC(C)(C)C)nc2C)cc1 [NVS-PI3-4]
[2]; [18]
  Effect on rhGM-CSF-mediated human neutrophil survival: failed to affect GM-CSF-mediated survival
[8]
  IC50: 250 nM
[9]
  IC50: 750 nM
[10]; [21]
  IC50: 4000 nM
[10]; [22]
  IC50: 710 nM
[11]
  IC50: 1800 nM

## Oc1cccc(-c2nc(N3CCOCC3)c3oc4ncccc4c3n2)c1 [PI-103]
[2]; inhibitor 10 µM
  Effect on rhGM-CSF-mediated human neutrophil survival: did indeed appear to inhibit the effects of rhGM-CSF on neutrophil apoptosis
[13]
  IC50 against all PI3K Class I isoforms: submicromolar range
[1]; PI-103 10 µM
  Morphological assessment of apoptosis in neutrophils treated with rhGM-CSF and inhibitor: did not reveal classical apoptotic morphology
[1]
  Cytoplasmic vacuolation of human neutrophils: extensive cytoplasmic vacuolation was seen
[6]
  Effect on GM-CSF-induced PKB phosphorylation: abolished
[7]
  Vacuole formation or necrosis in murine neutrophils: did not exhibit significant vacuolation
  Effect on constitutive murine neutrophil apoptosis: did not affect constitutive apoptosis
[7]; [19]
  Concentration giving maximal effect on rmGM-CSF survival effect: 3 µM
[7]; [20]
  Effect on rmGM-CSF cytoprotective (survival) effect in murine neutrophils: blocked the rmGM-CSF survival effect
[7]; PI-103 0.3 µM, C57BL/6, rmGM-CSF 0.1 ng/ml, 8 hours
  Effect on rmGM-CSF-induced survival, wild type neutrophils: had no effect on rmGM-CSF-induced survival of wild type neutrophils
[7]; PI-103 0.3 µM, rmGM-CSF 0.1 ng/ml, 8 hours
  Effect on rmGM-CSF-induced survival, p110γKO and p110δKOγKO neutrophils: attenuated the rmGM-CSF survival effect
[3]
  Cell accessibility: PI-103 (pan class I) ^*

## CC#C[C@]1(O)CC[C@H]2[C@@H]3CCC4=CC(=O)CCC4=C3[C@@H](c3ccc(N(C)C)cc3)C[C@@]21C [RU-486]
[5]
  Effect on reduced spontaneous apoptosis of neutrophils from exacerbating COPD patients: lack of effect

## Cc1cc(C(C)Nc2ccccc2)c2nc(N3CCOCC3)cc(=O)n2c1 (stereo not drawn) [TGX-221]
[2]; inhibitor 10 µM
  Effect on rhGM-CSF-mediated human neutrophil survival: failed to abrogate GM-CSF mediated survival
[14]
  IC50: 100 nM
[15]
  IC50: 5000 nM
[16]
  IC50: 3500 nM

## COC[C@H]1OC(=O)c2coc3c2[C@@]1(C)C1=C(C3=O)[C@@H]2CCC(=O)[C@@]2(C)C[C@H]1OC(C)=O [Wortmannin]
[2]; inhibitor 100 nM, replenished during culture
  Effect on rhGM-CSF-mediated human neutrophil survival: blocked the anti-apoptotic effect of GM-CSF, although less completely than 10 µM LY294002
[6]
  Effect on GM-CSF-induced PKB phosphorylation: abolished

## rhGM-CSF: Recombinant human granulocyte-macrophage colony stimulating factor, obtained from R&D Systems
[2]; 6–24 h
  Effect of GM-CSF on human neutrophil apoptosis: delays human neutrophil apopotosis
[5]; 10 ng/ml
  Effect of rhGM-CSF on survival of neutrophils from exacerbating COPD patients: caused a fully PI3K-dependent additional survival effect

B1: rmGM-CSF: Recombinant mouse granulocyte-macrophage colony stimulating factor, purchased from Peprotech (protein, UniProt P01587 18-141, looked up)
Granulocyte-macrophage …: APTRSPITVTRPWKHVEAIKEALNLLDDMPVTLNEEVEVVSNEFSFKKLTCVQTRLKIFEQGLRGNFTKLKGALNMTASYYQTYCPPTPETDCETQVTTYADFIDSLKTFLTDIPFECKKPGQK
[7]; C57BL/6 peripheral blood neutrophils, 8 hour, AnV/PI flow cytometry
  EC50 for delay of murine neutrophil apoptosis: 0.0075 ng/mL
[7]; concentration-dependent, all time points studied (0–12 h)
  Effect on murine neutrophil apoptosis: significantly delayed
